Experiments:
recombinant human DAGLα = recombinant human DAGLα (Homo sapiens (Human), UniProt Q9Y4D2); test: SAG substrate assay (in vitro inhibition of 2-AG biosynthesis), membrane lysates from HEK293T cells; assay type: biochemical; conditions: n=4, read-out: IC50, DAGLα conversion of SAG to 2-AG
Method: (§1) DAGL modulators were tested for in vitro inhibition of 2-AG biosynthesis using a 1-stearoyl-2-arachidonoyl-sn-glycerol (SAG) substrate assay in DAGL-transfected HEK293 cells.
(§2) The SAG substrate assay, as described in Journal of lipid research 56(4):927-935, was performed using the following assay conditions: 0.2 U/mL glycerol kinase (GK), glycerol-3-phosphate oxidase (GPO) and horseradish peroxidase (HRP), 0.125 mM ATP, 10 μM Amplifu™Red, 5% DMSO in a total volume of 200 μL. The assay additionally contained SAG, a DAGL modulator, and membrane lysates from HEK293T cells expressing recombinant human DAGLα or DAGLβ.
(§3) Membranes were prepared from HEK293T cells transiently transfected with DAGLα or DAGLβ plasmids encoding for full length DAGLα or DAGLβ, respectively (Angewandte Chemie 52(46):12081-12085; Journal of Medicinal Chemistry 57(15):6610-6622). Briefly, one day prior to transfection, 10^7 cells were seeded in a 15 cm petri dish. The seeded cells were transfected by the addition of a 3:1 mixture of polyethyleneimine (60 μg) and plasmid DNA (20 μg) in 2 mL serum free medium. The medium was refreshed after 24 hr, and after 72 hr the cells were harvested by suspending them in 20 mL medium. The suspension was centrifuged for 10 min at 1000 rpm, and the supernatant was removed. The cell pellet was stored at −80° C. until use. Cell pellets were thawed on ice and suspended in lysis buffer A (20 mM HEPES, 2 mM DTT, 0.25 M sucrose, 1 mM MgCl2, lx protease inhibitor cocktail (Roche cOmplete EDTA free), 25 U/μL Benzonase). The suspension was homogenized by polytrone (3×7 sec) and incubated for 30 min on ice. The suspension was subjected to ultracentrifugation (100,000×g, 30 min, 4° C., Beckman Coulter, Type Ti70 rotor) to yield the cytosolic fraction in the supernatant and the membrane fraction as a pellet. The pellet was resuspended in lysis buffer B (20 mM HEPES, 2 mM DTT, lx protease inhibitor cocktail (Roche cOmplete EDTA free)) and the protein concentration determined with Quick Start Bradford assay (Biorad). The protein fractions were diluted to a total protein concentration of 1 mg/mL and stored in small aliquots at −80° C. until use.

recombinant human DAGLβ = recombinant human DAGLβ (Homo sapiens (Human), UniProt Q8NCG7); test: as above; assay type: biochemical
Method: as §1, §2, §3

DAGLα (hDAGLα-FLAG) = DAGLα (hDAGLα-FLAG) (Homo sapiens (Human), UniProt Q9Y4D2); test: competitive ABPP, membrane proteome of transfected HEK293T cells; assay type: biochemical; conditions: read-out: DAGLα IC50
Procedure, shortened: (§4)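 HEK293T membrane proteome (1 mg/ml) expressing FLAG-tagged human DAGLα or DAGLβ, treated 30 min at room temperature with compound, then 30 min with HT-01 or FP-Rh probe (1 μM). Bands separated by SDS-PAGE were normalized to DMSO for IC50 by variable-slope fit.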

DAGLβ (hDAGLβ-FLAG) = DAGLβ (hDAGLβ-FLAG) (Homo sapiens (Human), UniProt Q8NCG7); test: as above; assay type: biochemical; conditions: read-out: DAGLβ IC50
Procedure, shortened: as §4

[1] = system: LPS-induced neuroinflammatory responses (brain lipids, cytokines, body temperature); test: LPS-induced neuroinflammatory responses in mouse brain; assay type: in vivo; conditions: mice; for LPS-induced elevation in brain 2-AG / LPS-induced elevation in brain PGE2 / LPS-stimulated brain cytokines: 50 mg/kg i.p. 60-90 min before LPS 20 mg/kg i.p., 6 hr; for LPS-induced anapyrexia: 50 mg/kg i.p. before LPS; for brain 2-AG under basal control conditions / brain AA under basal control conditions / brain PGE2 under basal control conditions: 50 mg/kg i.p., no LPS
Method: The effects of pharmacological and genetic inactivation of DAGL activity on neuroinflammatory responses (brain prostaglandin and cytokine production) induced by high-dose lipopolysaccharide treatment was examined.
Mice were treated with compounds 14, 17, control compound 22 or vehicle (50 mg/kg, i.p) for 60-90 min, followed by LPS (20 mg/kg, i.p., 6 hr) or vehicle. The mice were subsequently sacrificed and their brain lipid and cytokine profiles analyzed. […] The LPS-induced elevations in both 2-AG and PGE2 were suppressed in compound 14 and compound 17 treated mice and DAGLα/mice, but not compound 22 treated mice. […] LPS-induced anapyrexia was blunted in compound 14 and 17 treated mice (FIG. 8E) and DAGLα−/− mice (FIG. 8F), but not compound 22 treated mice (FIG. 8E).

PAFAH2 = PAFAH2 (Mus musculus (Mouse), UniProt Q8VDG7); test: in vivo ABPP coupled to quantitative mass spectrometry (FP-biotin, ReDiMe); conditions: brain proteomes of treated mice
Method: (§5) The extent of these target profiles were confirmed by performing ABPP coupled to high-resolution, quantitative mass spectrometry (MS). Briefly, brain proteomes from compound and vehicle-treated mice were incubated with the serine hydrolase directed activity-based probe FP-biotin, and probe-labeled enzymes were enriched by streptavidin chromatography, digested on bead with trypsin, and the resulting tryptic peptides modified by reductive dimethylation (ReDiMe) of lysine residues using isotopically heavy and light formaldehyde, respectively. In these experiments, inhibited serine hydrolases are identified as enzymes showing low heavy/light ReDiMe ratios.

PLA2G7 = PLA2G7 (Mus musculus (Mouse), UniProt Q60963); test: as above; conditions: brain proteomes of treated mice
Method: as §5

Sequence of recombinant human DAGLβ (Q8NCG7 whole entry): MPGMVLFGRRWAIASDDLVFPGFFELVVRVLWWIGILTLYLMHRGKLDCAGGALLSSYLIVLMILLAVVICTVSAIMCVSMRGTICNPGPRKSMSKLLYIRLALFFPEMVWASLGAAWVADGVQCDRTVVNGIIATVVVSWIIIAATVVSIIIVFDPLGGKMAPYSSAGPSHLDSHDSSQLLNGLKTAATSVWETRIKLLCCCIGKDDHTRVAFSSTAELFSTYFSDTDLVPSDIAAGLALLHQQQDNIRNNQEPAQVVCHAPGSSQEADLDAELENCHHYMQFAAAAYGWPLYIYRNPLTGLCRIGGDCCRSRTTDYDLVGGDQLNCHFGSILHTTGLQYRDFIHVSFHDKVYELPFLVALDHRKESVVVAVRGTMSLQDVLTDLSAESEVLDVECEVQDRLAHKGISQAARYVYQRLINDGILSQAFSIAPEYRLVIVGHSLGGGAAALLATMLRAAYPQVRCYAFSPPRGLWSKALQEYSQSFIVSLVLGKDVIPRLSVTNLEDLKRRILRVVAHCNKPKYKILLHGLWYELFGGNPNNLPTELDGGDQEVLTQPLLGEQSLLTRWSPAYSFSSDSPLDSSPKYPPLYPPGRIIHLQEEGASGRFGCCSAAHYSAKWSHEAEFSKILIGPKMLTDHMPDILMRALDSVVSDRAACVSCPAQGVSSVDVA
Sequence of DAGLβ (hDAGLβ-FLAG) (Q8NCG7 whole entry): as above
Sequence of DAGLα (hDAGLα-FLAG) (Q9Y4D2 whole entry): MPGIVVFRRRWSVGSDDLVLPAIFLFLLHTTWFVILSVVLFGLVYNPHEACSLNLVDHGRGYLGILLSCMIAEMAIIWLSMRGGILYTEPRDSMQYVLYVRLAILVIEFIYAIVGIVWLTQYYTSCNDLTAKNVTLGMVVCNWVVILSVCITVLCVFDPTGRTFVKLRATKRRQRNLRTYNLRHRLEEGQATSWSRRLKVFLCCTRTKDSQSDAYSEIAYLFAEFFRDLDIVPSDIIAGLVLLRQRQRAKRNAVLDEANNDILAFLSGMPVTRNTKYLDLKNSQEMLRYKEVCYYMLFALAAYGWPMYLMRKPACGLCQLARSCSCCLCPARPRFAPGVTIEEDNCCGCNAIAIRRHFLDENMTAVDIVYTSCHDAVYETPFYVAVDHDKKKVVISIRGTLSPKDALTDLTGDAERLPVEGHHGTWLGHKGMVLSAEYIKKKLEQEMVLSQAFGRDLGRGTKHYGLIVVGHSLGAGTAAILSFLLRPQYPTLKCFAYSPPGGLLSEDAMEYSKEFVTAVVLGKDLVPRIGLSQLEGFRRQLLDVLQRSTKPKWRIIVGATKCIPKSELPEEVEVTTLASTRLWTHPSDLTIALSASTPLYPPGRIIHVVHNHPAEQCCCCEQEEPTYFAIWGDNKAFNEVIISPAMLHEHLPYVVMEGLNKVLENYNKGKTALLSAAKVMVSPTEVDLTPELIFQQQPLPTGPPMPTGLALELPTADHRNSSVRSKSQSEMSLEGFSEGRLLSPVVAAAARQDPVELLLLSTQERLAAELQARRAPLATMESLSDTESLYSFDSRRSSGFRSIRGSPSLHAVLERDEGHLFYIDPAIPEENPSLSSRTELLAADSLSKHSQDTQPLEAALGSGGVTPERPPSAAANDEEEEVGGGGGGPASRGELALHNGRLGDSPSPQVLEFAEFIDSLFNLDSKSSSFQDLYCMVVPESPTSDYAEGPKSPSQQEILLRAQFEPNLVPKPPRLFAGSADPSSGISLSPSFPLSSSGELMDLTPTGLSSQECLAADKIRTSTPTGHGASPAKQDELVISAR
Sequence of recombinant human DAGLα (Q9Y4D2 whole entry): as above
Sequence of PLA2G7 (Q60963 22-440): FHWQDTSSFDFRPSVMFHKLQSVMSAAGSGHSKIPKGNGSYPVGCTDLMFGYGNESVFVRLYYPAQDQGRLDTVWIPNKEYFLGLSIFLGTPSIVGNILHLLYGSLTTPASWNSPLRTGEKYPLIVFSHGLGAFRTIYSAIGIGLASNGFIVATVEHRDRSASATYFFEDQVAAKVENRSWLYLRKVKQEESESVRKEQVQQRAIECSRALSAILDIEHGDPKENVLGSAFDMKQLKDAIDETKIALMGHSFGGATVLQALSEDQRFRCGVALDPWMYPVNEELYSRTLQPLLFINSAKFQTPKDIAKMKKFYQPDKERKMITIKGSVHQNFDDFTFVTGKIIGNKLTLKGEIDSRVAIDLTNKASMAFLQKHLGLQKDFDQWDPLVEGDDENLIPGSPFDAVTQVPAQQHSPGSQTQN
Sequence of PAFAH2 (Q8VDG7 whole entry): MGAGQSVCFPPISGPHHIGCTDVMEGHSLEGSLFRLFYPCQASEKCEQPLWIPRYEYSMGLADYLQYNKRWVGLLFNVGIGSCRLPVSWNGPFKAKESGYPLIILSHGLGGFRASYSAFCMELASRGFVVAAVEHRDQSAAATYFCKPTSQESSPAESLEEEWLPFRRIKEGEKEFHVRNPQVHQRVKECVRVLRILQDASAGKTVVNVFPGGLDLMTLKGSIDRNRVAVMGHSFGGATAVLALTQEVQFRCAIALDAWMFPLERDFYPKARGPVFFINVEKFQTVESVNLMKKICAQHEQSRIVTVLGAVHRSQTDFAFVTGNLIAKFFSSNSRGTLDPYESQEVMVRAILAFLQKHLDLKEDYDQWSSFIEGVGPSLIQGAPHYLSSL

With `C#CCO[C@@H]1CC[C@H](Cc2ccccc2)N(C(=O)n2ncc(C(O)(c3ccc(F)cc3)c3ccc(F)cc3)n2)C1` [Compound 14, ((2R,5R)-2-Benzyl-5-(prop-2-ynyloxy)piperidin-1-yl)(4-(bis(4-fluorophenyl)(hydroxy)methyl)-2H-1,2,3-triazol-2-yl)methanone] the IC50 (recombinant human DAGLα) was 6 nM, the IC50 (recombinant human DAGLβ) was 3 to 8 nM and the IC50 (DAGLα (hDAGLα-FLAG)) was ≤ 400 nM. The IC50 (DAGLβ (hDAGLβ-FLAG)) was ≤ 400 nM, the “LPS-induced elevation in brain 2-AG” value [1] was “suppressed” and the “LPS-induced elevation in brain PGE2” value [1] was “suppressed”. For the same compound, the LPS-stimulated brain cytokines [1] was “reductions”, the LPS-induced anapyrexia [1] was “blunted” and the “brain 2-AG under basal control conditions” value [1] was “severely depleted”. The “brain AA under basal control conditions” value [1] was “severely depleted” and the “brain PGE2 under basal control conditions” value [1] was “severely depleted”.
In the case of `CC(C)(C)OC(=O)N1CCN(C(=O)n2cc(-c3ccc(OC(F)(F)F)cc3)nn2)C(Cc2ccccc2)C1` (stereo not drawn) [Compound 17, tert-Butyl 3-benzyl-4-(4-(4-(trifluoromethoxy)phenyl)-1H-1,2,3-triazole-1-carbonyl)piperazine-1-carboxylate], the IC50 (recombinant human DAGLα) is reported as 6 nM, the IC50 (recombinant human DAGLβ) is reported as 3 to 8 nM and the IC50 (DAGLα (hDAGLα-FLAG)) is reported as ≤ 400 nM. The IC50 (DAGLβ (hDAGLβ-FLAG)) was ≤ 400 nM, the “heavy/light ReDiMe ratio, PAFAH2 (off-target)” value (PAFAH2) was < 0.5 and the “heavy/light ReDiMe ratio, PLA2G7 (off-target)” value (PLA2G7) was < 0.5. For the same compound, the “LPS-induced elevation in brain 2-AG” value [1] was “suppressed”, the “LPS-induced elevation in brain PGE2” value [1] was “suppressed” and the LPS-stimulated brain cytokines [1] was “reductions”. The LPS-induced anapyrexia [1] was “blunted”, the “brain 2-AG under basal control conditions” value [1] was “severely depleted” and the “brain AA under basal control conditions” value [1] was “severely depleted”. The “brain PGE2 under basal control conditions” value [1] was “severely depleted”.
